We go through four molecules from paper PMC9266797 (2022).

The test system of experiment [1] is poly A–poly U (RNA, polymer) A/U. The experiment in a line: UV melting at 260 nm. As to conditions: Na+ (sodium cacodylate, I = 0.05 M); pH 7.0; RNA 25 µM, r = 0.25; no Cu2+; per base.
The subject of experiment [2] is poly dAdT–poly dAdT (DNA, polymer) AT. Kind of experiment: DAPI displacement by CD (ICD at 375 nm). The conditions noted are these: Na+ (sodium cacodylate, I = 0.05 M), pH 7.0, DAPI displaced; for IDA50%: ratio [DAPI]/[compound], range printed for 6 and 7 together.
Experiment [3] has as its system poly A–poly U (RNA, polymer) A/U. Kind of experiment: fluorimetric titration, Scatchard fit. The conditions noted are these: Na+ (sodium cacodylate, I = 0.05 M), n fixed at 0.2 per nucleobase, per base.
Experiment [4] has as its system poly dAdT–poly dAdT (DNA, polymer) AT. The experiment in a line: UV melting at 260 nm. The conditions noted are these: Na+ (sodium cacodylate, I = 0.05 M); pH 7.0; DNA 25 µM; no Cu2+; per base.
Experiment [5] shares this test system. The experiment in a line: CD (induced band at 375 nm). The conditions noted are these: Na+ (sodium cacodylate, I = 0.05 M); pH 7.0; DNA 20 µM, r[DAPI]/[DNA] = 0.6.

With `COC(=O)[C@H](Cc1c[nH]c2ccccc12)NC(=O)C(Cc1cn(COC(=O)C(C)(C)C)nn1)NC(=O)[C@@H](N)Cc1c[nH]c2ccccc12` (stereo partly shown), in experiment [1], the “∆Tm” value came out at 0 ± 0.5 °C. Besides, in experiment [2] (very weakly), the binding entry is reported as “weak”.
Regarding `COC(=O)[C@H](Cc1c[nH]c2ccccc12)NC(=O)C(Cc1cn(COC(=O)C(C)(C)C)nn1)NC(=O)CCCc1ccc2ccc3cccc4ccc1c2c34` (stereo partly shown), the “log Ks” value in experiment [3] (pH 7.0, 0.04% DMSO, 1 µM compound) is on record as 6.8. Also, the “∆Tm” value in experiment [4] and in experiment [1] was 0 ± 0.5 °C each time. Moreover, in experiment [2], the IDA50% is 0.02–0.01.
`N=C(N)c1ccc(-c2cc3ccc(C(=N)N)cc3[nH]2)cc1`: the binding entry in experiment [5] was “yes”.
Consider `COC(=O)[C@H](Cc1c[nH]c2ccccc12)NC(=O)C(Cc1cn(COC(=O)C(C)(C)C)nn1)NC(=O)c1ccc2ccc3cccc4ccc1c2c34` (stereo partly shown), for which the “log Ks” value in experiment [3] (pH 7.0) was found to be 6.6. Besides, the “∆Tm” value in experiment [1] was found to be 0 ± 0.5 °C. Also, the IDA50% in experiment [2] is reported as 0.02–0.01.
